Read-outs that look alike come from different tables or passages of the source.
Key:
[1] = tested on: advanced NSCLC (EGFR exon 20 insertions); test: Phase 1/2 study, antitumor activity / disease assessment by RECIST v1.1; assay type: in vivo, human
Experimental: 52 patients were enrolled as of 30 Jan. 2018.
Disease stabilization started to be reported at the 40 mg QD cohort. Disease assessments for patients who had at least one disease assessment following treatment with Compound (A) are shown in Table 21. All patients who responded have EGFR exon 20 insertion mutations and had previously been treated with platinum-based chemotherapy, EGFR TKIs, or PD-1 inhibitors.

[2] = Phase 1/2 study, safety (adverse events, dose limiting toxicities, MTD)
Experimental: Patients with advanced NSCLC refractory to standard therapy received daily oral doses (5-120 mg) of Compound (A) in the dose-escalation phase. Compound (A) was provided as polymorphic Form-I of the succinate salt of Compound (A). Compound (A) was formulated as a drug-in-capsule with no excipients and administered orally. Preliminary antitumor activity (by RECIST v1.1), safety and pharmacokinetics are reported for patients receiving at least one dose.
As part of the same phase ½ study as described in Example 12, a dose escalation study was performed. […] 2018.
The phase 2 portion of the study was initiated to expand the study in two 160 mg QD cohorts (EGFR exon 20 mutant NSCLC patients with or without brain metastases) and continue to enroll more patients in the 120 mg cohort.

[3] = Clinical pharmacokinetics in NSCLC patients, oral once daily; assay type: in vivo, human; details: for half-life: human, plasma, po
Experimental: Clinical PK data includes data from the dose escalation portion of the study. Compound (A) has been administered orally once per day in 28-day treatment cycles at dose levels of 5, 10, 20, 40, 80, 120, 160 and 180 mg. […] The dosage identified in milligrams (mg) is based on the weight of the freebase of Compound (A). FIGS. 33, 34 show the mean plasma concentration-time profiles of Compound (A) following oral administration of Compound (A) once per day in NSCLC patients.
Compound (A) is administered orally on an empty stomach once per day continuously.

[4] = Single rising dose study in healthy subjects (safety, food effect, relative bioavailability); assay type: in vivo, human
Source text: This study is a randomized, double-blind, placebo-controlled single rising dose study (Part 1), followed by an open-label, crossover evaluation of the effects of a low-fat meal on the pharmacokinetics (PK) of Compound (A) (Part 2), and a crossover evaluation of the relative bioavailability of Compound (A) drug-in-capsule (DiC) (test) versus DiC (reference) in healthy subjects (Part 3).

[5] = Vapour sorption analysis (GVS, hygroscopicity); assay type: physicochemical; details: % uptake at 90% RH
Experimental: Approximately 10 mg of the sample was placed into a mesh vapor sorption balance pan and loaded into an IGASorp Moisture Sorption Analyzer balance by Hiden Analytical. The sample was subjected to a ramping profile from 40 to 90% relative humidity (RH) at 10% increments to 90% RH, maintaining the sample at each step until a stable weight had been achieved (98% step completion). After completion of the sorption cycle, the sample was dried using the same procedure (initially from 90% RH to 0% RH and finally taken back to the starting point of 40% RH). The sorption/desorption profiles were then repeated to give a double-cycle plot. The weight changes during the sorption/desorption cycles were plotted, allowing for the hygroscopic nature of the sample to be determined.

[6] = Stability stress testing (ambient light, 40° C./75% RH, 80° C., 7 days; XRPD and HPLC purity); assay type: physicochemical
Experimental: Approximately 5 mg of the appropriate samples were placed into 2 mL clear glass vials and the vials were all stored open under the conditions of ambient light, 40° C./75% RH, and 80° C. for 7 days, respectively. The ambient light sample was left open on the bench at room temperature. The 80° C. sample was placed open into an 80° C. oven.

physchem = details: pH 6.97, water, thermodynamic from solid
Experimental: (§1) The resulting solid material was isolated by centrifugation and analyzed by XRPD, while the filtrate was analyzed by HPLC for concentration determination. The pH of the resulting filtrate was also determined.

[7] = Thermodynamic aqueous solubility studies (de-ionized water, 24 h, HPLC concentration, filtrate pH, XRPD of solid); details: pH of filtrate after 24 h slurry in de-ionized water (pH 6.97), ambient temperature
Experimental: as §1

[8] = 80 mg QD cohort, oral, NSCLC patients, RECIST v1.1
[9] = 120 mg QD cohort, oral, NSCLC patients, RECIST v1.1

Which results are given for `C=CC(=O)Nc1cc(Nc2ncc(C(=O)OC(C)C)c(-c3cn(C)c4ccccc34)n2)c(OC)cc1N(C)CCN(C)C` [Compound (A), propan-2-yl 2-[5-(acryloylamino)-4-{[2-(dimethylamino)ethyl](methyl)amino}-2-methoxyanilino]-4-(1-methyl-1H-indol-3-yl)pyrimidine-5-carboxylate]?
Disease assessments: SD (stable disease), number of patients ([1]; 40 mg QD cohort, oral, NSCLC patients, RECIST v1.1): 3 patients; additional patients with SD ([1]; 80 mg QD and above, including 1 at 180 mg QD): 6 patients; objective response ([1]; 80 mg QD and above, 2 confirmed PR at 80 mg QD, 1 confirmed complete response at 120 mg QD, 2 PR awaiting confirmation at 160 mg QD): 5 patients; Disease assessments: PR (partial response), number of patients [1, 8]: 2 patients; Disease assessments: SD (stable disease), number of patients [1, 8]: 2 patients; Disease assessments: CR (complete response), number of patients [1, 9]: 1 patient; Disease assessments: SD (stable disease), number of patients [1, 9]: 2 patients; Disease assessments: SD (stable disease), number of patients ([1]; 160 mg QD cohort, oral, NSCLC patients, RECIST v1.1): 1 patient; Disease assessments: PR (partial response), number of patients ([1]; 160 mg QD cohort, oral, NSCLC patients, RECIST v1.1, unconfirmed): 2 patients ^a; discontinuation for documented progressive disease (PD) per RECIST version 1.1, patients ([1]; 52 patients, data cut): 26.9%; progressive disease (PD) as best response ([1]; of 14 evaluable patients, 40 mg n=3, 80 mg n=1, 120 mg n=1): 5 patients; stable disease (SD) as best response ([1]; of 14 evaluable patients, 40 mg n=3, 80 mg n=2, 120 mg n=1): 6 patients; partial response (PR) as best response ([1]; of 14 evaluable patients, 80 mg n=2 both confirmed, 120 mg single PR awaiting confirmation): 3 patients; response (PR, CR) versus prior treatment ([1]; prior therapies including EGFR TKIs and immuno-oncology agents): observed in patients regardless of prior treatment therapies; maximum tolerated dose (MTD) ([2]; QD, oral, NSCLC patients, dose escalation 5-180 mg QD and 40 mg BID): 160 mg; discontinuation for adverse event (AE), patients ([2]; human, in vivo): 15.4%; patients with Grade 3 TEAEs ([2]; human, in vivo): 51.9%; patients with at least 1 treatment-emergent serious adverse event (SAE) ([2]; human, in vivo): 38.5%; patients with at least 1 treatment-related SAE ([2]; human, in vivo): 9.6%; patients with at least 1 treatment-related adverse event (TRAE) ([2]; human, in vivo): 78.8%; patients with at least one TEAE ([2]; human, in vivo): 88.5%; dose limiting toxicities ([2]; in vivo): Two dose limiting toxicities, both pneumonitis; accumulation, peak/trough ratio and molar metabolite/parent Cav ratios of the two active metabolites versus dose ([3]; 5 to 180 mg QD, suggesting no obvious trend of time-dependent inhibition or auto-induction): independent of Compound (A) dose; AUC24 dependence on dose ([3]; Cycle 2 Day 1, multiple dose, 5 to 180 mg QD): increased in an approximately dose-proportional manner; AUC0-24,ss dependence on dose ([3]; NSCLC patients, daily oral doses 5-120 mg, first results): increased in a dose-proportional manner; half-life ([3]; NSCLC patients, daily oral doses 5-120 mg, first results, read-out: effective t1/2 (converted)): ~16 h; half-life ([3]; oral QD, NSCLC patients, read-out: effective half-life based on accumulation, geometric mean (converted)): ~15 h; half-life ([3]; oral QD, NSCLC patients, read-out: effective half-life based on accumulation, range): 6 to 27 h; accumulation in AUC24 ([3]; oral QD): approximately 1.5 fold; SAEs [4]: No SAEs were reported; safety and tolerability ([4]; up to a single oral dose of 160 mg): safe and well tolerated

With `C=CC(=O)Nc1cc(Nc2ncc(C(=O)OC(C)C)c(-c3cn(C)c4ccccc34)n2)c(OC)cc1N(C)CCN(C)C.Cc1ccc(S(=O)(=O)O)cc1` [Tosylate, isopropyl 2-((5-acrylamido-4-((2-(dimethylamino)ethyl) (methyl)amino)-2-methoxyphenyl)amino)-4-(1-methyl-1H-indol-3-yl)pyrimidine-5-carboxylate tosylate] as the compound, how does the “GVS (Hygroscopicity)” value [5] read?
Its value is 1.4%.

And the XRPD after storage ([6]; 7 days, all storage conditions (ambient light, 40° C./75% RH, 80° C.))?
The XRPD after storage was “No change under all storage”.

And the “Purity, 40° C./75% RH” value ([6]; HPLC purity after 7 days, open vial, 40° C./75% RH)?
The value was 99.4.

And the “Purity, 80° C.” value ([6]; HPLC purity after 7 days, open vial, 80° C.)?
Its value is 99.4.

And the “Purity, Ambient light” value ([6]; HPLC purity after 7 days, open vial, ambient light, room temperature)?
Its value is 99.5.

What about the Input purity ([6]; HPLC purity before stress storage) of the same compound?
Its Input purity is 99.7.

What about the “Chemical Stability” value ([6]; summary in Table 17) of the same compound?
The value was “Stable”.

What about the solubility at 24 h (physchem) of the same compound?
The solubility at 24 h was 400 µg/mL.

And the “pH at Saturation” value [7]?
The value was 6.38.

From patent US12084431B2, “Pharmaceutical salts of pyrimidine derivatives and method of treating disorders” (ARIAD Pharmaceuticals, Inc., priority 2018, dated 2024)
